# In ChEMBL document CHEMBL3396993, “Inhibition of monoamine oxidase by indole-5,6-dicarbonitrile derivatives” (Bioorg Med Chem Lett, 2015):
# How the values were obtained:
# [1] = target: T1, Amine oxidase [flavin-containing] A (Homo sapiens, UniProt P21397);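 further: recombinant human enzyme, activity followed as kynuramine conversion to 4-hydroxyquinoline, detected by spectrofluorometry, inhibition measured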
# T1 sequence (P21397 whole entry): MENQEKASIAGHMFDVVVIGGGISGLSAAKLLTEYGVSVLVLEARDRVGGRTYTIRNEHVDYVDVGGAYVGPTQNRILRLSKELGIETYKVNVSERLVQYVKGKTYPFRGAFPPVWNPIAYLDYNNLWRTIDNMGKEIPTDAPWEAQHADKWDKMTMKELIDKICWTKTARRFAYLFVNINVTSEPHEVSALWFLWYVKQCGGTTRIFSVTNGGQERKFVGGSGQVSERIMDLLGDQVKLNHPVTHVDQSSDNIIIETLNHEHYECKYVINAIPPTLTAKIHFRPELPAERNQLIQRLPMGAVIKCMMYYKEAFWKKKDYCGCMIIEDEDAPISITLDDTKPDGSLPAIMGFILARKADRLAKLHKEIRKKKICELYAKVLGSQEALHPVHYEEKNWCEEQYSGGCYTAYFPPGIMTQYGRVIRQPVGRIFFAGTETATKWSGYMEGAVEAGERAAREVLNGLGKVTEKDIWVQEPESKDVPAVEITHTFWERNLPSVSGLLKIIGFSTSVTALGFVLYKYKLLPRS
# [2] = target: T2, Amine oxidase [flavin-containing] B (Homo sapiens, UniProt P27338);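 further: recombinant enzyme, kynuramine substrate converted to 4-hydroxyquinoline, product quantified by spectrofluorometry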
# T2 sequence (P27338 whole entry): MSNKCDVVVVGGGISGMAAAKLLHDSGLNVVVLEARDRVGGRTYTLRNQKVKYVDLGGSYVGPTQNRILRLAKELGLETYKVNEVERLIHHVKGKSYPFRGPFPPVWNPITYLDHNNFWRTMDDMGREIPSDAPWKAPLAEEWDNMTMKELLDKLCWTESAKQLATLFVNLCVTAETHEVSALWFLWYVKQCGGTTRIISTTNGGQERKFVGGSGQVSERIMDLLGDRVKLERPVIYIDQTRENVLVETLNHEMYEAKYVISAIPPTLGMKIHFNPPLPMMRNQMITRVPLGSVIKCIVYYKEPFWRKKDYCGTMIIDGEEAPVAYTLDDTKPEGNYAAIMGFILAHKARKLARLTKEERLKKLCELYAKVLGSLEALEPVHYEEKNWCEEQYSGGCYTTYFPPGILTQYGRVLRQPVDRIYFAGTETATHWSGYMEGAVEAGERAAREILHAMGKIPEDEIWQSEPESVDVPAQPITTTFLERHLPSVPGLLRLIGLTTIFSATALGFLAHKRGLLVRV
# [3] = target: T1, Amine oxidase [flavin-containing] A; experiment: Reversible inhibition of human recombinant MAO-A using kynuramine substrate assessed as enzyme activity recovered at 4 times of IC50 concentration incubated for 15 mins and subsequently dialyzed for 24 hrs relative to control; parameters: scale not given: the % may be the effect or the level left; settings: 0.25 h
# [4] = target: T2, Amine oxidase [flavin-containing] B; experiment: Reversible inhibition of human recombinant MAO-B using kynuramine substrate assessed as enzyme activity recovered at 4 times of IC50 concentration incubated for 15 mins and subsequently dialyzed for 24 hrs relative to control; parameters: scale not given: the % may be the effect or the level left; settings: 0.25 h
# [5] = target: T1, Amine oxidase [flavin-containing] A; experiment: Reversible inhibition of human recombinant MAO-A using kynuramine substrate assessed as enzyme activity recovered at 4 times of IC50 concentration incubated for 15 mins relative to control; parameters: scale not given: the % may be the effect or the level left; settings: 0.25 h
# [6] = target: T2, Amine oxidase [flavin-containing] B; experiment: Reversible inhibition of human recombinant MAO-B using kynuramine substrate assessed as enzyme activity recovered at 4 times of IC50 concentration incubated for 15 mins relative to control; parameters: scale not given: the % may be the effect or the level left; settings: 0.25 h
# [7] = target: T1, Amine oxidase [flavin-containing] A; experiment: Reversible inhibition of human recombinant MAO-A using kynuramine substrate assessed as enzyme activity recovered at 4 times of IC50 concentration incubated for 15 mins and subsequently dialyzed for 24 hrs relative to control in presence of pargyline; parameters: scale not given: the % may be the effect or the level left; settings: 0.25 h
# [8] = target: T2, Amine oxidase [flavin-containing] B; experiment: Reversible inhibition of human recombinant MAO-B using kynuramine substrate assessed as enzyme activity recovered at 4 times of IC50 concentration incubated for 15 mins and subsequently dialyzed for 24 hrs relative to control in presence of (R)-deprenyl; parameters: scale not given: the % may be the effect or the level left; settings: 0.25 h
# [9] = target: T1, Amine oxidase [flavin-containing] A; experiment: Inhibition of human recombinant MAO-A assessed as kynuramine substrate by Lineweaver-Burk plot analysis
# [10] = target: T2, Amine oxidase [flavin-containing] B; experiment: Inhibition of human recombinant MAO-B assessed as kynuramine substrate by Lineweaver-Burk plot analysis
IC50 [1] [nM],IC50 [2] [nM],SMILES,also measured
6.6,–,N#Cc1ccc(OCc2ccc(Br)cc2)cc1C#N,–
129,> 100000,COc1ccc(-c2c(Cl)c3cc(C#N)c(C#N)cc3n2C)cc1,–
19400,> 100000,Cc1ccc(-c2c(Cl)c3cc(C#N)c(C#N)cc3n2C)cc1,–
35,> 100000,Cn1c(-c2cccs2)c(Cl)c2cc(C#N)c(C#N)cc21,–
3480,11900,N#Cc1cc2c(Br)c(-c3ccccc3)n(O)c2cc1C#N,–
726,1520,COc1ccc(-c2c(Br)c3cc(C#N)c(C#N)cc3n2O)cc1,–
2190,2860,Cc1ccc(-c2c(Br)c3cc(C#N)c(C#N)cc3n2O)cc1,–
> 100000,> 100000,COc1ccc(-c2c(Br)c3cc(C#N)c(C#N)cc3n2OC)cc1,–
121,144,N#Cc1cc2[nH]c(-c3ccccc3)c(Cl)c2cc1C#N,–
4,20,COc1ccc(-c2[nH]c3cc(C#N)c(C#N)cc3c2Cl)cc1,–
14,17,Cc1ccc(-c2[nH]c3cc(C#N)c(C#N)cc3c2Cl)cc1,Activity [3]: 77%; Activity [4]: 78%; Activity [5]: 43%; Activity [6]: 37%; Activity [7]: 1.6%; Activity [8]: 3.1%; Ki [9]: 18 nM; Ki [10]: 16 nM
118,1270,N#Cc1cc2[nH]c(-c3cccs3)c(Cl)c2cc1C#N,–
142,> 100000,Cn1c(-c2ccccc2)c(Cl)c2cc(C#N)c(C#N)cc21,–
–,642,N#Cc1ccc(OC/C=C/c2ccccc2)cc1C#N,–
